From patent US7371779B2, “Synergistic compositions of N-acylhomoserine lactones and 4-quinolones” (The Secretary of State for Defense Science and Technology, priority 2001, dated 2008)
Entries after “also recorded” stand apart in the source; their conditions may differ.

Key:
[1] = tested on: hPBMC; assay: Cell proliferation of hPBMC stimulated with anti-CD3 and anti-CD28; type: cell-based, human; settings: four donors; for inhibition of proliferation of hPBMC stimulated via CD3 and CD28, in words: 0.78125 to 100 μM
Procedure: Anti-CD3 and anti-CD28 antibodies were used to assess the effect of quorum sensing signal molecules (PQS, OdDHL and OHHL) on T-cell proliferation and IL-2 secretion. Proliferation was assessed by the incorporation of [^3H]-thymidine into the DNA of PBMC and the release of cytokines in the culture supernatants was determined by ‘sandwich’ ELISA. Blood specimens were obtained with consent from four healthy human volunteers (aged between 20 and 50 years). Human PBMC were isolated from heparinised whole blood by buoyant density centrifugation over Histopaque 1077 (Sigma, Poole, UK) at 600 g for 20 minutes. PBMC harvested from the ‘buffy’ layers were washed twice with RPMI 1640 medium and resuspended in complete cell culture medium (CTCM) consisting of RPMI 1640 medium with 5% FCS, 2 mM L-glutamine, and 5×10^−5 M 2-mercaptoethanol. The quorum sensing molecules, of which stock solutions of 0.1 M were soluble in DMSO, were initially diluted into CTCM and then tested in triplicate wells at concentrations ranging from 0.78125 to 100 μM in 200 μl of CTCM, containing 100,000 hPBMC which were challenged with 100 ng/ml of mouse anti-human CD3 monoclonal antibody (clone UCHT1; BD Pharmingen, UK) and 5 μg/ml of mouse anti-human CD28 monoclonal antibody (clone CD28.2; BD Pharmingen, UK). hPBMC were incubated for 24 h at 37° C. in 5% CO2-air and 50 μl of culture supernatants were removed for the determination of IL-2 (see IV.II below). The cells were returned for a further 24 h culture, followed by pulsing with 0.25 μCi [^3H]-thymidine (Amersham) in 10 μl volume made up in RPMI 1640 medium. After a further incubation of 24 h, cells were harvested onto 96-well filter plates (Unifilter Filtermate Harvester™, Packard Bioscience Ltd, UK). Following the addition of 25 μl of scintillant (MicroScint-O™; Packard Bioscience Ltd. UK) to each well in the filter plates, the radioactivity in the filters was measured with a β-scintillation counter (TopCount™, Packard Bioscience Ltd, UK) according to manufacturer's specifications. […]

[2] = tested on: IL-2; assay: Release of IL-2 from BALB/c splenocytes stimulated with ConA; settings: ConA 1 μg/ml
[3] = tested on: murine splenocytes; assay: ConA mitogen-stimulated proliferation of murine splenocytes ([3H]-thymidine incorporation); type: cell-based, mouse (BALB/c); settings: for inhibition of ConA induced murine splenocyte proliferation (cpm), in words: ConA 1 μg/ml, BALB/c splenocytes
Procedure: (§1) Proliferation was assessed by the incorporation of [^3H]-thymidine into DNA. Eight-week-old female BALB/c mice were obtained from Harlan (Bicester, Oxon, UK) and given food and water ad libitum. Splenocyte suspensions were prepared by removing the spleens and placing them into RPMI 1640 medium. The spleens were forced through 70-μm-pore-size wire gauzes using the plunger from a 5-ml syringe to produce a single cell suspension. The cells were pelleted by centrifugation, and erythrocytes were lysed with 0.017 M Tris, 0.144 M ammonium chloride buffer, pH 7.2. Leucocytes were washed twice with RPMI 1640 medium with 2% (vol/vol) foetal calf serum (FCS) and resuspended in complete cell culture medium (CTCM) consisting of RPMI 1640 medium with 5% FCS, 2 mM L-glutamine, and 5×10^−5 M 2-mercaptoethanol. HSL compounds were tested at doubling down dilutions ranging from 1 mM to 0.1 μM in a final volume of 200 μl of CTCM, containing ConA (Sigma, Poole, UK) at 1 μg/ml and 100,000 spleen cells. Following incubation for 48 h at 37° C. in 5% CO2-air, 0.25 μCi [^3H]-thymidine (Amersham) in 10 μl volume made up in RPMI 1640 medium was added and the cells were incubated for a further 24 h. Cells were harvested onto fibreglass filters with a Packard filtermate harvester. After the addition of 25 μl of MicroScint-O (Packard) to each well the filters were counted with the Packard TopCount scintillation counter.
(§2) Mitogen (Concanavalin A) induced murine splenocyte proliferation was indicated by the incorporation of tritated thymidine into the DNA in the mouse spleen cells as shown by counts per minute using the scintillation counter. The inhibitory effect of an HSL compound being tested on cell proliferation was indicated by a reduction in counts per minute.
as §1, with “70 μm pore size” for “70-μm-pore-size”, “5 ml” for “5-ml”, “The title compound was” for “HSL compounds were”, “dilutions” for “dilutions ranging from 1 mM to 0.1 μM in a final volume of 200 μl of CTCM,”, “g/ml” for “μg/ml”, “COrair,” for “CO2-air,”
as §2, with “the title” for “an HSL”

Row | SMILES | inhibition of proliferation of hPBMC stimulated via CD3 and CD28, in words ([1]; listed as OdDHL) | inhibition of release of IL-2 from BALB/c splenocytes, in words [2] | effect of OdDHL alone on murine splenocyte proliferation ([3]; 6.25 μM, alone) | IC50 ([3]; ConA 1 μg/ml, 100,000 spleen cells, Experiment I, read-out: IC50 in inhibition of ConA induced murine splenocyte proliferation) | inhibition of ConA induced murine splenocyte proliferation (cpm), in words ([3]; listed as OdDHL) | potency relative to OdDHL in inhibition of CD3/CD28 stimulated hPBMC proliferation [1] | inhibition of proliferation of hPBMC stimulated via CD3 and CD28, in words [1] | inhibition of ConA induced murine splenocyte proliferation (cpm), in words [3] | inhibition of ConA induced murine splenocyte proliferation (cpm), in words ([3]; listed as 2-heptyl-3-hydroxy-4(1H)quinolone)
1 | CCCCCCCCCC(=O)CC(=O)N[C@H]1CCOC1=O [Example 6] | inhibited, in a dose dependent manner; also recorded: inhibit the proliferation of stimulated hPBMC | inhibit the release of IL-2 | inactive | 4 µM | inhibits splenocyte proliferation; also recorded: inhibit the proliferation |  |  |  | 
2 | CCCCCCCc1[nH]c2ccccc2c(=O)c1O [PQS] |  | inhibit the release of IL-2 |  |  |  | consistently more potent than OdDHL | inhibited, in a dose dependent manner; also recorded: inhibit the proliferation of stimulated hPBMC | inhibit the proliferation | inhibits splenocyte proliferation
